Test results: ChEMBL document CHEMBL1201862, “PubChem BioAssay data set” (2004)
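Where inhibition never reached the appropriate level, the endpoint shown equals the highest concentration tested. Otherwise, values were interpolated linearly from a five-concentration, 48-hour dose response in 96-well plates. GI50 = concentration required for 50% inhibition of growth.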 Activity calls are given as the source filed them. Cut-off read from the data, not from the text of the source: active = GI50 up to about 1.1 µM and inactive = higher.

Tests used:
Experiment in all cases: NCI-60 cell line screen, 48 h
[1] = system: NCI-H23
[2] = system: SK-MEL-2
[3] = system: IGROV-1
[4] = system: CAKI-1
[5] = system: RPMI-8226
[6] = system: NCI-H522
[7] = system: T47D
[8] = system: OVCAR-4
[9] = system: MOLT-4
[10] = system: MDA-MB-231
[11] = system: A549
[12] = system: SW-620
[13] = system: SR
[14] = system: SK-MEL-28
[15] = system: SK-OV-3
[16] = system: UACC-257
[17] = system: CCRF-CEM
[18] = system: COLO 205
[19] = system: MDA-MB-435
[20] = system: SK-MEL-5
[21] = system: OVCAR-5
[22] = system: Malme-3M
[23] = system: DU-145
[24] = system: RXF 393
[25] = system: LOX IMVI
[26] = system: U-251
[27] = system: SNB-75
[28] = system: HOP-62
[29] = system: KM12
[30] = system: HL-60
[31] = system: SF-539
[32] = system: A498
[33] = system: NCI/ADR-RES
[34] = system: K562
[35] = system: HT-29
[36] = system: Hs-578T
[37] = system: UACC-62
[38] = system: ACHN
[39] = system: HOP-92
[40] = system: NCI-H226
[41] = system: OVCAR-8
[42] = system: M14
[43] = system: SF-295
[44] = system: MDA-N
[45] = system: EKVX
[46] = system: SNB-19
[47] = system: 786-0
[48] = system: HCT-116
[49] = system: PC-3
[50] = system: SN12C
[51] = system: HCT-15
[52] = system: UO-31
[53] = system: MCF7
[54] = system: TK-10
[55] = system: SF-268
[56] = system: HCC 2998

Measured: GI50

CCCC1C(CC)C(NC)C(C#N)(C#N)C1(C#N)C#N (stereo unspecified)
13.2 µM: [51]
inactive: [1] 21.4 µM | [2] 18.9 µM | [3] 15.7 µM | [4] 11.4 µM | [5] 17.1 µM | [6] 13.9 µM | [7] 14.5 µM | [8] 28.2 µM | [9] 24.1 µM | [10] 15.2 µM | [11] 34.8 µM | [12] 36.8 µM | [13] 16.9 µM | [14] 30.2 µM | [15] > 100 µM | [16] 16.7 µM | [17] 13.1 µM | [18] 12.8 µM | [19] 25.3 µM | [20] 12.1 µM | [21] 33.7 µM | [22] 21.2 µM | [23] 14.2 µM | [24] 13.1 µM | [25] 16.3 µM | [26] 28.1 µM | [27] 10 µM | [28] 15 µM | [29] 16.4 µM | [30] 20.4 µM | [31] 16.8 µM | [32] 15.6 µM | [33] 17.9 µM | [34] 23.7 µM | [35] 13.6 µM | [36] 25.9 µM | [37] 17.5 µM | [38] 18.1 µM | [39] 14 µM | [40] 2.88 µM | [41] 20.7 µM | [42] 35.6 µM | [43] 17.2 µM | [44] 16 µM | [45] 25.2 µM | [46] 22.5 µM | [47] 15.4 µM | [48] 15.1 µM | [49] 18.1 µM | [50] 15.1 µM | [52] 14.6 µM | [53] 23.5 µM | [54] 16.9 µM | [55] 16.5 µM | [56] 18 µM
